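Abbreviation: GI50, concentration required for 50% inhibition of growth. TGI marks complete inhibition of growth.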
Legend:
Experiment in all cases: NCI-60 cell line screen, 384-well format
A549 NSCLC = system: A549 NSCLC
SK-OV-3 ovarian = system: SK-OV-3 ovarian
A498 renal = system: A498 renal
HOP-92 NSCLC = system: HOP-92 NSCLC
NCI-H460 NSCLC = system: NCI-H460 NSCLC
COLO 205 colon = system: COLO 205 colon
HT29 colon = system: HT29 colon
HOP-62 NSCLC = system: HOP-62 NSCLC
DU-145 prostate = system: DU-145 prostate
HCC-2998 colon = system: HCC-2998 colon
NCI/ADR-RES ovarian = system: NCI/ADR-RES ovarian
HS 578T breast = system: HS 578T breast
SN12C renal = system: SN12C renal
K-562 leukemia = system: K-562 leukemia
MALME-3M melanoma = system: MALME-3M melanoma
MDA-MB-468 breast = system: MDA-MB-468 breast
786-0 renal = system: 786-0 renal
SNB-19 CNS = system: SNB-19 CNS
M14 melanoma = system: M14 melanoma
UACC-62 melanoma = system: UACC-62 melanoma
U251 glioblastoma = system: U251 glioblastoma
HCT-116 colon = system: HCT-116 colon
NCI-H522 lung = system: NCI-H522 lung
NCI-H23 lung = system: NCI-H23 lung
TK-10 renal = system: TK-10 renal
PC-3 prostate = system: PC-3 prostate
SF-539 CNS = system: SF-539 CNS
OVCAR-5 ovarian = system: OVCAR-5 ovarian
MDA-MB-231 breast = system: MDA-MB-231 breast
KM12 colon = system: KM12 colon
EKVX NSCLC = system: EKVX NSCLC
OVCAR-4 ovarian = system: OVCAR-4 ovarian
RPMI-8226 leukemia = system: RPMI-8226 leukemia
LOX IMVI melanoma = system: LOX IMVI melanoma
SF-268 CNS = system: SF-268 CNS
SK-MEL-5 melanoma = system: SK-MEL-5 melanoma
SR leukemia = system: SR leukemia
HCT-15 colon = system: HCT-15 colon
SK-MEL-2 melanoma = system: SK-MEL-2 melanoma
IGROV1 ovarian = system: IGROV1 ovarian
MDA-MB-435 melanoma = system: MDA-MB-435 melanoma
SK-MEL-28 melanoma = system: SK-MEL-28 melanoma
OVCAR-3 ovarian = system: OVCAR-3 ovarian
CAKI-1 renal = system: CAKI-1 renal
SW-620 colon = system: SW-620 colon
CCRF-CEM leukemia = system: CCRF-CEM leukemia
HL-60(TB) leukemia = system: HL-60(TB) leukemia
BT-549 breast = system: BT-549 breast
MOLT-4 leukemia = system: MOLT-4 leukemia

In the case of `COc1cnccc1Nc1nc(-c2nn(Cc3c(F)cc(OCCO)cc3F)c3ccccc23)ncc1OC`, the GI50 (A549 NSCLC) is reported as 1.54 µM, the TGI (A549 NSCLC) is reported as 2.92 µM and the GI50 (SK-OV-3 ovarian) is reported as 1.75 µM. It also gave a TGI (SK-OV-3 ovarian) of 3.93 µM, a GI50 (A498 renal) of 1.19 µM and a TGI (A498 renal) of 2.43 µM. For the same molecule, the GI50 (HOP-92 NSCLC) was 0.902 µM, the TGI (HOP-92 NSCLC) was 2.19 µM and the GI50 (NCI-H460 NSCLC) was 1.06 µM. For the same molecule, the TGI (NCI-H460 NSCLC) was 2.28 µM, the GI50 (COLO 205 colon) was 2.27 µM and the TGI (COLO 205 colon) was over 33.3 µM. For the same molecule, the GI50 (HT29 colon) was 1.85 µM, the TGI (HT29 colon) was 5.48 µM and the GI50 (HOP-62 NSCLC) was 0.783 µM. The TGI (HOP-62 NSCLC) was 2.06 µM, the GI50 (DU-145 prostate) was 1.73 µM and the TGI (DU-145 prostate) was 3.44 µM. For the same molecule, the GI50 (HCC-2998 colon) was 1.76 µM, the TGI (HCC-2998 colon) was 4.47 µM and the GI50 (NCI/ADR-RES ovarian) was 1.87 µM. The TGI (NCI/ADR-RES ovarian) was 3.9 µM, the GI50 (HS 578T breast) was 1.75 µM and the TGI (HS 578T breast) was 3.89 µM. For the same molecule, the GI50 (SN12C renal) was 1.31 µM, the TGI (SN12C renal) was 2.65 µM and the GI50 (K-562 leukemia) was 1.21 µM. It also gave a TGI (K-562 leukemia) of 2.56 µM, a GI50 (MALME-3M melanoma) of 1.77 µM and a TGI (MALME-3M melanoma) of 3.2 µM. For the same molecule, the GI50 (MDA-MB-468 breast) was 0.927 µM, the TGI (MDA-MB-468 breast) was 2.13 µM and the GI50 ([…]-0 renal) was 1.53 µM. It also gave a TGI (786-0 renal) of 2.89 µM, a GI50 (SNB-19 CNS) of 1.6 µM and a TGI (SNB-19 CNS) of 3.08 µM. It also gave a GI50 (M14 melanoma) of 1.4 µM, a TGI (M14 melanoma) of 2.86 µM and a GI50 (UACC-62 melanoma) of 1.5 µM. The TGI (UACC-62 melanoma) was 2.86 µM, the GI50 (U251 glioblastoma) was 1.44 µM and the TGI (U251 glioblastoma) was 2.78 µM. For the same molecule, the GI50 (HCT-116 colon) was 1.62 µM, the TGI (HCT-116 colon) was 3.6 µM and the GI50 (NCI-H522 lung) was 0.768 µM. The TGI (NCI-H522 lung) was 2.03 µM, the GI50 (NCI-H23 lung) was 1.63 µM and the TGI (NCI-H23 lung) was 3.15 µM. The GI50 (TK-10 renal) was 2.04 µM, the TGI (TK-10 renal) was 4.14 µM and the GI50 (PC-3 prostate) was 1.87 µM. It also gave a TGI (PC-3 prostate) of 3.36 µM, a GI50 (SF-539 CNS) of 1.45 µM and a TGI (SF-539 CNS) of 2.76 µM. It also gave a GI50 (OVCAR-5 ovarian) of 2.86 µM, a TGI (OVCAR-5 ovarian) of 7.17 µM and a GI50 (MDA-MB-231 breast) of 1.41 µM. The TGI (MDA-MB-231 breast) was 3.22 µM, the GI50 (KM12 colon) was 1.27 µM and the TGI (KM12 colon) was 3.13 µM. The GI50 (EKVX NSCLC) was 1.54 µM, the TGI (EKVX NSCLC) was 3.16 µM and the GI50 (OVCAR-4 ovarian) was 1.64 µM. The TGI (OVCAR-4 ovarian) was 3.03 µM, the GI50 (RPMI-8226 leukemia) was 0.841 µM and the TGI (RPMI-8226 leukemia) was 2.09 µM. For the same molecule, the GI50 (LOX IMVI melanoma) was 1.25 µM, the TGI (LOX IMVI melanoma) was 2.72 µM and the GI50 (SF-268 CNS) was 0.845 µM. It also gave a TGI (SF-268 CNS) of 2.72 µM, a GI50 (SK-MEL-5 melanoma) of 1.51 µM and a TGI (SK-MEL-5 melanoma) of 2.85 µM. It also gave a GI50 (SR leukemia) of 0.261 µM, a TGI (SR leukemia) of 1.25 µM and a GI50 (HCT-15 colon) of 1.2 µM. For the same molecule, the TGI (HCT-15 colon) was 2.51 µM, the GI50 (SK-MEL-2 melanoma) was 1.54 µM and the TGI (SK-MEL-2 melanoma) was 2.88 µM. It also gave a GI50 (IGROV1 ovarian) of 1.94 µM, a TGI (IGROV1 ovarian) of 4.47 µM and a GI50 (MDA-MB-435 melanoma) of 1.73 µM. The TGI (MDA-MB-435 melanoma) was 3.36 µM, the GI50 (SK-MEL-28 melanoma) was 1.72 µM and the TGI (SK-MEL-28 melanoma) was 3.12 µM. It also gave a GI50 (OVCAR-3 ovarian) of 1.61 µM, a TGI (OVCAR-3 ovarian) of 3.1 µM and a GI50 (CAKI-1 renal) of 1.9 µM. It also gave a TGI (CAKI-1 renal) of 8.3 µM, a GI50 (SW-620 colon) of 1.47 µM and a TGI (SW-620 colon) of 2.84 µM. It also gave a GI50 (CCRF-CEM leukemia) of 0.395 µM, a TGI (CCRF-CEM leukemia) of 1.74 µM and a GI50 (HL-60(TB) leukemia) of 0.838 µM. It also gave a TGI (HL-60(TB) leukemia) of 2.16 µM, a GI50 (BT-549 breast) of 1.44 µM and a TGI (BT-549 breast) of 2.8 µM. It also gave a GI50 (MOLT-4 leukemia) of 0.126 µM and a TGI (MOLT-4 leukemia) of 0.548 µM.
